Experiments:
Histone deacetylase 1 = Histone deacetylase 1 (Homo sapiens, UniProt Q13547); test: Inhibition of HDAC1 (unknown origin)
[1] = molecular target: T1, Bromodomain-containing protein 4 (Homo sapiens, UniProt O60885); test: Inhibition of BRD4-BD1 (unknown origin)
[2] = molecular target: T1, Bromodomain-containing protein 4; test: Inhibition of GST-tagged BRD4 (unknown origin) by HTRF assay
[3] = molecular target: T2, Bromodomain-containing protein 2 (Homo sapiens, UniProt P25440); test: Inhibition of recombinant BRD2-BD1 (unknown origin) by TR-FRET assay
[4] = molecular target: T3, Bromodomain-containing protein 3 (Homo sapiens, UniProt Q15059); test: Inhibition of recombinant BRD3-BD1 (unknown origin) by TR-FRET assay
[5] = molecular target: T3, Bromodomain-containing protein 3; test: Inhibition of recombinant BRD3-BD2 (unknown origin) by TR-FRET assay
[6] = molecular target: T2, Bromodomain-containing protein 2; test: Inhibition of recombinant BRD2-BD2 (unknown origin) by TR-FRET assay
[7] = molecular target: T4, Bromodomain testis-specific protein (Homo sapiens, UniProt Q58F21); test: Inhibition of recombinant BRDT-BD1 (unknown origin) by TR-FRET assay
[8] = molecular target: T4, Bromodomain testis-specific protein; test: Inhibition of recombinant BRDT-BD2 (unknown origin) by TR-FRET assay
Histone deacetylase 3 = Histone deacetylase 3 (Homo sapiens, UniProt O15379); test: Inhibition of human HDAC3 using Boc-Lys(Ac)-AMC as substrate by fluorescence based assay
[9] = molecular target: T1, Bromodomain-containing protein 4; test: Inhibition of BRD4-BD2 (unknown origin)
[10] = molecular target: T1, Bromodomain-containing protein 4
Description: Inhibition of BRD4 (unknown origin) by ELISA

Histone deacetylase = test: Inhibition of HDAC (unknown origin) by ELISA; assay type: protein assay, Homo sapiens
U-937 = test: Cytotoxicity against human U-937 cells assessed as cell viability at 3 uM by MTT assay relative to control; assay type: functional; conditions: read-out: Activity

Sequence of Histone deacetylase 1 (Q13547 whole entry): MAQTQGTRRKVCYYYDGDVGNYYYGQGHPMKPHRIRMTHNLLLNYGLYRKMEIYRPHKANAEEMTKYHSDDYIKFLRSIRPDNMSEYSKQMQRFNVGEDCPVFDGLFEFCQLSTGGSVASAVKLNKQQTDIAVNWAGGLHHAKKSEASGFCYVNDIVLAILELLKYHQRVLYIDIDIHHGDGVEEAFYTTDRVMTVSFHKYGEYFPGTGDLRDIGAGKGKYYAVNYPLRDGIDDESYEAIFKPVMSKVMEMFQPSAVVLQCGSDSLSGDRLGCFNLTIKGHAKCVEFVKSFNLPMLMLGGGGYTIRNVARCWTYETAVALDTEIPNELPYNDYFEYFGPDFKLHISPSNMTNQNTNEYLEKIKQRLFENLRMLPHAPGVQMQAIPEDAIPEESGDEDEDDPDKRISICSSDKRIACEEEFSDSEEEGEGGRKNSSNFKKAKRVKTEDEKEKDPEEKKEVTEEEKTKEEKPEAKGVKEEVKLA
T3 sequence (Q15059 whole entry): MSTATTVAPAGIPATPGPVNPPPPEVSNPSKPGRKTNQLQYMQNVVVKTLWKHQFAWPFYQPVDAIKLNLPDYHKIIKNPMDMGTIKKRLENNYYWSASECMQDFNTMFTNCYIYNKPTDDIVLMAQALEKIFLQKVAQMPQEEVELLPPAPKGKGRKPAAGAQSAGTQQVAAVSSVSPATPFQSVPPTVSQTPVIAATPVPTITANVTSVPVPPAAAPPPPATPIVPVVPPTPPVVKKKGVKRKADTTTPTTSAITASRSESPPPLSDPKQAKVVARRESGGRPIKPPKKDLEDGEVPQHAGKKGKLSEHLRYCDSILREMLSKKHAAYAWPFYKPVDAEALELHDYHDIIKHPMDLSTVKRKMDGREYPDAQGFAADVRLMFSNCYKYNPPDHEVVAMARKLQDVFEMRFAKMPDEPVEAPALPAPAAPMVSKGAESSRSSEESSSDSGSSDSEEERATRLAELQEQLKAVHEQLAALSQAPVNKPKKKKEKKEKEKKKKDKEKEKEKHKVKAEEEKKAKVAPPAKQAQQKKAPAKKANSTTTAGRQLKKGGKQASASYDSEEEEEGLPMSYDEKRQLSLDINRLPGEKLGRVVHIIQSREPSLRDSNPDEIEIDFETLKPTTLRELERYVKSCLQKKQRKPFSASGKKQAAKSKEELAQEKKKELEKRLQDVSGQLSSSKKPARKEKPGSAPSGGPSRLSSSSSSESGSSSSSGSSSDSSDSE
T2 sequence (P25440 whole entry): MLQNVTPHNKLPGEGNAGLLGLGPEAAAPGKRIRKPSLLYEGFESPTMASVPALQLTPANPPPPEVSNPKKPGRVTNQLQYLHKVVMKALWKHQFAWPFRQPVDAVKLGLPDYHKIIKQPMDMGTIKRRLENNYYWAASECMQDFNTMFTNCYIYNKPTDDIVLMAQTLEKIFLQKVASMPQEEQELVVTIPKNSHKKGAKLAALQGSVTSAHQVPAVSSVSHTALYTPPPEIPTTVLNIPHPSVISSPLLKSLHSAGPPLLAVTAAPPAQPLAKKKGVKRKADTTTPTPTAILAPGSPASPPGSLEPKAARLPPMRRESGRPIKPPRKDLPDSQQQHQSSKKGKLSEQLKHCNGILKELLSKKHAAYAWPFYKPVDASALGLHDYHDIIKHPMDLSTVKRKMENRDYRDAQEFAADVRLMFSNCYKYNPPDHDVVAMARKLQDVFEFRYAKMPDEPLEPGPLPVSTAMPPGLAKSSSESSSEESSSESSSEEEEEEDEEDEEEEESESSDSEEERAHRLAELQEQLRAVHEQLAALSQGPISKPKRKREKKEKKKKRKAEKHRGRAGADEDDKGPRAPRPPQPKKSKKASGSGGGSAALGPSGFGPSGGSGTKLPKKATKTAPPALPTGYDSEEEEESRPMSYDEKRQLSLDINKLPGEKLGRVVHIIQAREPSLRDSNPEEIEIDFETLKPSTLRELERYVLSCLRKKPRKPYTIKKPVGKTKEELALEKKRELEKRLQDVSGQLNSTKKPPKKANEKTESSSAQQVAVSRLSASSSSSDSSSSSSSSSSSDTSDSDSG
Sequence of Histone deacetylase 3 (O15379 whole entry): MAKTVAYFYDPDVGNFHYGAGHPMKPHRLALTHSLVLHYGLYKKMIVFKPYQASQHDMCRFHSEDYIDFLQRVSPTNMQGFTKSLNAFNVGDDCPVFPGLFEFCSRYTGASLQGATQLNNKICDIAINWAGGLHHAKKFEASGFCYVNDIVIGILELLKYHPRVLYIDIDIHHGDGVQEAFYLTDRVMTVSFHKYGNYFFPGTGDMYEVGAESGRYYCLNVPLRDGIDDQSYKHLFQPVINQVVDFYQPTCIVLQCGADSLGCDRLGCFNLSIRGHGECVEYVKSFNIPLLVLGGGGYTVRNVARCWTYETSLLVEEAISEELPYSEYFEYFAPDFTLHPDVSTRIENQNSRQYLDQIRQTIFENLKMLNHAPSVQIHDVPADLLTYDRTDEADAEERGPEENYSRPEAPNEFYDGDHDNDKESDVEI

CC(=O)N1c2ccc(-c3ccc(NC(=O)CCCCCCC(=O)NO)cc3)cc2[C@H](NC(=O)OC(C)C)C[C@@H]1C
IC50 (Histone deacetylase 1): 50 nM | IC50 [1]: 250 nM

COC(c1c(F)cccc1Cl)c1c[nH]c2ncc(-c3c(C)noc3C)cc12 (stereo not drawn)
IC50 [2]: < 1000 nM

Cc1sc2c(c1C)C(c1ccc(Cl)cc1)=N[C@@H](CC(=O)Nc1ccc(C(=O)NO)cc1)c1nnc(C)n1-2
IC50 [3]: 11 nM | IC50 [4]: 11 nM | IC50 [5]: 11 nM | IC50 [6]: 11 nM | IC50 [7]: 11 nM | IC50 [8]: 11 nM

O=C(CCCCCCn1cc(Cc2ccccc2)c2ccccc21)NO
IC50 (Histone deacetylase 3): 60 nM

Cc1sc2c(c1C)C(c1ccc(Cl)cc1)=N[C@@H](CC(=O)NCc1ccc(/C=C/C(=O)NO)cc1)c1nnc(C)n1-2
IC50 (Histone deacetylase 1): > 20000 nM | IC50 [1]: 1350 nM | IC50 [9]: 1580 nM

Cc1sc2c(c1C)C(c1ccc(Cl)cc1)=N[C@@H](CC(=O)Nc1ccc(NC(=O)CCCCCCC(=O)NO)cc1)c1nnc(C)n1-2
IC50 (Histone deacetylase 1): 1110 nM | IC50 [1]: 4530 nM | IC50 [9]: 11000 nM

Cc1sc2c(c1C)C(c1ccc(Cl)cc1)=N[C@@H](CC(=O)Nc1ccc(C(=O)Nc3ccccc3N)cc1)c1nnc(C)n1-2
IC50 (Histone deacetylase 1): 290 nM | IC50 [1]: 720 nM | IC50 [9]: 74 nM

Cc1sc2c(c1C)C(c1ccc(Cl)cc1)=N[C@@H](CC(=O)NCCCC(=O)Nc1ccccc1N)c1nnc(C)n1-2
IC50 [10]: 29.6 nM | IC50 (Histone deacetylase): 31.24 nM | viability at 3 µM (U-937): 16.1%

O=C(CCCCCCC(=O)Nc1ccccc1)NO [VORINOSTAT]
IC50 [10]: 43.1 nM

From ChEMBL document CHEMBL5096143, “Current status in the discovery of dual BET/HDAC inhibitors” (Bioorg Med Chem Lett, 2021)
